Several values for one entry are separate records, joined by “and”; a condition that tells them apart may be missing. Equal values may be shown once. Read-outs that look alike come from different tables or passages of the source.
Columns and labels:
[1] = H2S release detected with amperometric H2S-specific sensor in DMEM; settings: DMEM with 10% FBS, 0.28-0.32 mM compound
Description: The H2S-donating ability of compound 22, 24, 27, 29 and 30 (0.5 mg dissolved in 0.1 mL of DMSO) was detected in Dulbecco’s modified Eagle’s medium (DMEM) (4.9 mL) supplemented with 10% fetal bovine serum and 1% penicillin-streptomycin. The final concentrations were 0.31 mM for compound 22, 0.29 mM for compound 24, 0.28 mM for compound 27, 0.32 mM for compound 29 and 0.32 mM for compound 30, respectively. The released H2S was detected by an amperometric, H2S specific sensor (ISO-H2S-100, World Precision Instruments, Saratosa, FL, USA) connected to a WPI TBR 1025 One-Channel Free Radical Analyzer. The sensor was set to 10 nA range and poise voltage to + 150 mV. Before the measurements the sensor was polarized in phosphate buffered saline (PBS) for 12 h[19]. The H2S-release of NaHS was detected in distilled water (0.1 mg in 5 mL of H2O; 0.36 mM) and the H2S-release of GYY4137 was measured in DMEM (0.5 mg of GYY4137 in 5 mL of medium; 0.27 mM).

[2] = tested on: SARS-CoV-2 (strain hCoV-19/Czech Republic/NRL_6632_2/2020); experiment: Anti-SARS-CoV-2 cytopathic-effect-based assay in Calu-3 cells (CellTiter-Glo); assay type: cell-based; settings: compound added 2 h after infection, MOI 0.3, read after two days, read-out: EC50 ± SE, anti-SARS-CoV-2 activity
SARS-CoV-2 = assay type: cell-based; settings: medium of Calu-3 cells infected 2 days at the highest compound concentration, plaque assay in Vero E6 cells
Calu-3 cells = experiment: Cytotoxicity in Calu-3 cells (CellTiter-Glo); assay type: cell-based, human; settings: Calu-3 cells, no virus, two days incubation; read-out: CC50 ± SE, cytotoxicity in Calu-3 cells
Description: Cytotoxicity was evaluated by incubating the same two-fold serial dilutions of each compound with Calu-3 cells as above in the absence of the virus. Following two days incubation at 37 °C in 5% CO2, the cell viability was determined as above. The compound concentrations resulting in 50% reduction of cell viability (CC50) were calculated from plots of percentage of luminescence versus log10 drug concentration as above. Remdesivir was used as control in both assays.

[3] = ABTS radical cation decolorization assay; settings: 0.1 mM, compared with parent dithioacetates 22 and 24
Description: The ABTS decolorization assay was carried out as described by Szoke et al.[54] Briefly, the method is based on the scavenging of (2,2′-azinobis-(3-ethylbenzothiazoline-6-sulfonic acid) ABTS^•+ radical cation. The decolorization caused by the compound is compared to the decolorization induced by Trolox (6-hydroxy-2,5,7,8-tetramethylchroman-2-carboxylic acid), and expressed as Trolox equivalent antioxidant capacity (TEAC) value. TEAC values were expressed as Trolox equivalents calculated from (Ai − Af)antioxidant/(Ai − Af) Trolox at 0.1 mM concentrations. Briefly, a total of 10 µL sample, 20 µL of Myoglobin Working Solution, and 150 µL of ABTS Substrate Working Solution were mixed and incubated for 5 min at room temperature. At the end of incubation […] of Stop Solution was added and endpoint absorbance at 405 nm was read. All experiments were performed in triplicates and repeated three times.

[4] = DPPH radical scavenging assay; settings: for DPPH inhibition ratio (IR) after 30-min incubation / DPPH inhibition ratio (IR) immediately: 0.5 mM
Description: DPPH is a stable free radical with a deep violet color that changes to yellow when neutralized by an electron or hydrogen radical, indicating the antioxidant activity of the sample being tested. The DPPH radical scavenging abilities were investigated following the method outlined by Shimamura et al., with minor adjustments. In this study, a cardiovascular tissue homogenate was used to induce H2S release from the dithioacetate derivatives 22 and 24, as well as GYY4137. A mixed solution of 1.2 mL of methanol and 800 µL of 0.1 M Tris-HCl buffer (pH 7.4) served as the blank. 1 mL DPPH solution was added to a mixture of methanol and 0.1 M Tris-HCl buffer (200:800 µL). After mixing, the absorbance was recorded at 517 nm on a UV-1600 PC VWR spectrophotometer (VWR, China). To avoid any potential interference from the heart extract in the assay, we measured the absorbance after adding different volumes of the extract into the mixture. These measurements were taken both immediately and after 30 min of incubation.
The DPPH antioxidant assay was performed according to the following procedures. 1 mL of DPPH solution was added to a mixture of 200 µL of the methanolic sample solution and 800 µL of 0.1 M Tris-HCl buffer (pH = 7.4). For the groups containing the extract, the extract was introduced into a mixture of the sample solution in PBS buffer, 0.1 M Tris-HCl buffer, and DPPH (200:800:1000 µL). Considering that GYY4137 produces H2S upon hydrolysis, it was introduced last following the addition of the extract into a solution of PBS buffer, 0.1 M Tris-HCl buffer, and DPPH maintained at the same ratio. The same protocol was employed for NaHS without the addition of the extract. After mixing, the absorbance was promptly recorded, after which the solutions were incubated in the dark at room temperature for 30 min before the absorbance was measured again. The test samples were prepared and assayed at varying concentrations using a 2-fold serial dilution method, starting from a concentration of 2 mM. Each investigation was performed in triplicate, and the antioxidant activity was based on the absorbance recorded at 517 nm. Ascorbic acid (AA), GYY4137, and NaHS served as positive controls, while the unmodified nucleosides were used as reference compounds.
The inhibition ratio (IR) was calculated as follows: [drawing 1] where Ac is the absorbance when methanol is added instead of the sample and As is the absorbance when the testing sample solution is added.
The antioxidant capacity was expressed as the concentration needed to achieve a 50% inhibition of the free radical (IC50). The IC50 values were calculated by plotting the percent of inhibition as a function of sample concentration.

[5] = tested on: anaesthetized Sprague-Dawley rats; experiment: Cardiac effects by ECG and echocardiography in anaesthetized rats; assay type: in vivo, rat; settings: for Ejection Fraction / Heart rate / PR interval / QT interval / Stroke Volume: anaesthetized SD rats, 30 s after administration, mean ± SD
Description: The animals received humane care, and all experimental procedures were carried out in accordance with the “Principles of Laboratory Animal Care” by EU Directive 2010/63/EU. All experimental protocols were approved by the local Ethics Committee of University of Debrecen (25/2023/DEMÁB). Animal experiments are reported in compliance with the ARRIVE guidelines. Anesthesia was carried out using ketamine/xylazine mixture (100/10 mg/kg, i.m.). The chest was shaved and the animal was placed onto a heated pad (VisualSonics SR200, VisualSonics, Amsterdam, The Netherlands). The lateral tail vein was cannulated using a heparinized 26G i.v. cannula (BD Neoflon, BD Medical, NJ, USA). B-mode and M-mode echocardiography was carried out before and 30 s after the intravenous administration of the compounds. A high-resolution ultrasound machine (Vevo 3100 Imaging Station, VisualSonics, Amsterdam, The Netherlands) equipped with a […] transducer (MX201) was used for assessing cardiac parameters. Traces were obtained from the parasternal long axis view (PLAX). A B-mode video and an M-mode trace was recorded, and the following parameters were then offline analysed: left ventricle (LV) end-systolic and end-diastolic volume (LVESV, LVEDV, respectively) fractional shortening (FS) and ejection fraction (EF) and stroke volume (SV).
A 3-channel ECG was continuously recorded during the experiments (Vevo monitor ECG, VisualSonics, Amsterdam, The Netherlands). On the recorded ECG data, RR, PR and QT intervals, and heart rate (HR) were determined before and 30 s after the administration of the drugs, and 6 consecutive cardiac cycles were averaged for each parameter.
Statistical analyses for the in vivo studies were carried out using the GraphPad Prism 9.0 software (GraphPad Software, San Diego, CA, USA). Data distribution was assessed by the Shapiro-Wilk normality test, and paired t-test were used to determine the differences between the baseline (drug free) and endpoint (treated) parameters in each group. A multiple comparison was also carried out between the treatment groups by using one-way ANOVA with Tukey multiple comparison test. Data was shown as mean ± SD, and differences with p < 0.05 were considered significant.

[6] = after 30 min incubation, without extract, read-out: DPPH IC50 30 min
[7] = measured immediately, without extract, read-out: DPPH IC50 immediately
[8] = anaesthetized rats, 2 mg/kg i.v.
[9] = after 30 min incubation, with 20 µL homogenized rat heart extract, read-out: DPPH IC50 30 min, + extract (20 µL)
[10] = measured immediately, with 20 µL homogenized rat heart extract, read-out: DPPH IC50 immediately, + extract (20 µL)

Molecule | persistence of measurable H2S release [1] | time at which H2S gas release reached the maximum level [1] [min] | EC50 [2] [µM] | SARS-CoV-2 titer reduction (SARS-CoV-2) [log10 PFU/mL] | CC50 (Calu-3 cells) [µM] | IC50 [4, 6] [µM] | IC50 [4, 7] [µM] | other results
S-(Guanosine-5′-yl)-dithioacetic acid [Compound 27] | remained at a measurable level even after two hours | 10 to 20 | 158 ± 34 | 0.38 | > 1000 | – | – | –
O=c1ccn([C@@H]2O[C@H](CS)[C@@H](O)[C@H]2O)c(=O)[nH]1 [Compound 32, 5′-Thiouridine] | – | – | – | – | – | 570 | 710 | ABTS antioxidant activity (Trolox equivalents), in words [3]: higher antioxidant activity than the parent dithioacetate derivatives; DPPH inhibition ratio after 30 min incubation ([4]; 2 mM, after 30 min incubation): 90%; DPPH inhibition ratio immediately ([4]; 2 mM, immediately): 70–80%; DPPH activity lower than that of ascorbic acid ([4]; from IC50 values, relative to ascorbic acid): 10 times
O=C1O[C@H]([C@@H](O)CO)C(O)=C1O [Ascorbic acid (AA), Ascorbic acid, reference compound] | – | – | – | – | – | 60 | 60 | DPPH inhibition ratio (IR) after 30-min incubation ([4]; after 30 min incubation): 97.13%; DPPH inhibition ratio (IR) immediately ([4]; immediately): 97.25%
S-(Thymidine-5′-yl)-dithioacetic acid [Compound 30] | remained at a measurable level even after two hours | 10 to 20 | 621 ± 181 | 0.01 | 764 ± 82 | – | – | –
[Na+].[SH-] [NaHS, sodium hydrosulfide, reference compound] | – | – | – | – | – | – | – | DPPH inhibition ratio (IR) after 30-min incubation ([4]; after 30 min incubation): 90% and 90.03%; DPPH inhibition ratio (IR) immediately ([4]; immediately): 56.14%
S-(Adenosine-5′-yl)-dithioacetic acid [Compound 24] | remained at a measurable level even after two hours | 10 to 20 | 173 ± 24 | 0 | ~1000 | 2580 | 3540 | Ejection Fraction ([5]; 2 mg/kg i.v.): 80.70±5.230%; Heart rate ([5]; 2 mg/kg i.v.): 120.5±29.19 bpm; PR interval ([5]; 2 mg/kg i.v.): 47.00 ± 3.742 ms; QT interval ([5]; 2 mg/kg i.v.): 172.3 ± 46.85 ms; Stroke Volume ([5]; 2 mg/kg i.v.): 416.5 ± 93.56 µL; duration of negative chronotropic action compared with adenosine [5, 8]: their duration of action was longer; heart block (in words) [5, 8]: None of the new compounds (22, 24, and 34) induced complete heart block or pauses; IC50 [4, 9]: 1620 µM; IC50 [4, 10]: 2660 µM
C1COCCN1.COc1ccc(P(=S)(S)N2CCOCC2)cc1 (stereo not drawn) [GYY4137, reference compound] | – | – | – | – | – | – | – | DPPH inhibition ratio (IR) after 30-min incubation ([4]; after 30 min incubation): 10.63%; DPPH inhibition ratio (IR) immediately ([4]; immediately): 5.95%
O=c1ccn([C@@H]2O[C@H](CO)[C@@H](O)[C@H]2O)c(=O)[nH]1 [Uridine, reference compound] | – | – | – | – | – | > 100000 | > 100000 | –
S-(Cytidine-5′-yl)-dithioacetic acid [Compound 29] | remained at a measurable level even after two hours | 10 to 20 | > 1000 | 0.13 | > 1000 | – | – | –
Nc1ncnc2c1ncn2[C@@H]1O[C@H](CO)[C@@H](O)[C@H]1O [Adenosine, reference compound] | – | – | – | – | – | – | – | Ejection Fraction ([5]; 2 mg/kg i.v.): 71.25±2.958%; Heart rate ([5]; 2 mg/kg i.v.): 67.38±16.46 bpm; PR interval ([5]; 2 mg/kg i.v.): 59.50 ± 10.63 ms; QT interval ([5]; 2 mg/kg i.v.): 195.0 ± 31.69 ms; Stroke Volume ([5]; 2 mg/kg i.v.): 396.8 ± 130.4 µL; time within which negative chronotropic effect dissipated [5, 8]: approximately 60 s; heart block (in words) ([5]; rat, in vivo, iv, 2 mg/kg): induced heart block
S-(Uridine-5′-yl)-dithioacetic acid [Compound 22] | remained at a measurable level even after two hours | 10 to 20 | > 1000 | 0.02 | > 1000 | 3630 | 5560 | Ejection Fraction ([5]; 2 mg/kg i.v.): 68.70±4.226%; Heart rate ([5]; 2 mg/kg i.v.): 172.3±19.45 bpm; PR interval ([5]; 2 mg/kg i.v.): 51.2 ± 7.530 ms; QT interval ([5]; 2 mg/kg i.v.): 122.2 ± 10.73 ms; Stroke Volume ([5]; 2 mg/kg i.v.): 344.6 ± 81.32 µL; heart block (in words) [5, 8]: None of the new compounds (22, 24, and 34) induced complete heart block or pauses; IC50 [4, 9]: 1570 µM; IC50 [4, 10]: 3520 µM
